Data: patent US8753841B2, “Enzyme that catalyzes a peptide-forming reaction from a carboxy component and an amine component, microbe producing the same, and a method of producing a dipeptide using the enzyme or microbe” (Ajinomoto Co., Inc., priority 2002, dated 2014)

Assays:
Format in all cases: biochemical
[1] = system: peptide-forming enzyme from Empedobacter brevis strain FERM BP-8113; test: Substrate specificity of enzyme (peptide production from carboxy and amine components)
[2] = system: peptide-forming enzyme from Empedobacter brevis strain FERM BP-8113; test: as above; design: key to Formed peptide (mM): +: those peptides for which production was confirmed but which were unable to be quantified due to the absence of a standard; a trace amount; details: pH 9.0, 25° C.; for L-Ala-L-Gln formed: carboxy component 100 mM, 200 mM L-glutamine, 2 hours; for Formed peptide / Formed peptide (mM): L-amino acid methyl ester hydrochloride 100 mM, 3 hours
Source text: Ester specificity was examined in the case of using L-amino acid ester for the carboxy component. […] HCl represents hydrochloride in Table 4.
Peptide production was examined in the case of using L-alanine methyl ester for the carboxy component and using various L-amino acids for the amine component.
Peptide production was examined in the case of using various types of L-amino acid methyl esters for the carboxy component and using L-glutamine for the amine component. […] Furthermore, Tween-80 was added to the reaction system to a final concentration of 0.1% in the case of using L-Trp-OMe and L-Tyr-OMe.

[3] = system: enzyme derived from Sphingobacterium sp. strain FERM BP-8124; test: Substrate specificity of enzyme derived from Sphingobacterium sp.; design: key to Produced peptide (mM): +: those peptides for which production was confirmed but which were unable to be quantified due to the absence of a standard; a trace amount; details: carboxy component 100 mM, 0.33 units enzyme, pH 9.0, 25° C., 1.5 hours
[4] = β-amino acid ester or β-amino acid, carboxy component 100 mM, amine component 150 mM, pH 9.0, 25° C., 3 hours
[5] = Table 15-1, amine component 150 mM
[6] = oligopeptide production, amine component 150 mM
[7] = carboxy component 100 mM, peptide amine component 150 mM, pH 9.0, 25° C., 3 hours
[8] = Table 15-3, amine component 150 mM
[9] = carboxy component 100 mM, amine component 150 mM, 0.1 unit enzyme, 25° C., reaction time 3 hr
[10] = L or D amino acid methyl ester hydrochloride 100 mM, L or D amino acid 150 mM, pH 9.0, 25° C., 3 hours
[11] = Table 15-4, amine component 150 mM
[12] = amino acid methyl ester hydrochloride 100 mM, methylamine 150 mM, pH 9.0, 25° C., 3 hours

Ala-β-Phe
Formed peptide [1, 4]: 1.4 mM

β-Ala-β-Ala
Formed peptide [1, 4]: 0.2 mM

L-Tyr-Gly-Gly-L-Phe-L-Met
Produced peptide ([1]; oligopeptide production, amount of enzyme 1.0 unit, pH 9.0, 25° C., 3 hours): 2.7 mM

Thr-β-Ala
Formed peptide [1, 4]: 3.2 mM

CC(C)OC(=O)[C@H](C)N.Cl [L-Alanine isopropyl ester•HCl]
L-Ala-L-Gln formed [2]: 78.9 mM

L-Ala-L-Lys
Produced peptide [3, 5]: 71.2 mM

L-Ala-L-Ala-L-Ala
Produced peptide [3, 6]: 41.1 mM | Produced peptide [1, 7]: 57.5 mM

L-Ala-L-Asn
Produced peptide [3, 5]: 52.3 mM

Ala-β-Ala
Formed peptide [1, 4]: 7.7 mM

L-Val-L-Phe
Produced peptide [3, 8]: 1.0 mM | Formed peptide ([2]; L-amino acid 150 mM): 6.1 mM

L-Ile-L-Ser
Produced peptide [3, 8]: 17.3 mM | Formed peptide ([2]; L-amino acid 150 mM): 17.2 mM

Gly-Gly-L-Gln
Produced peptide [1, 7]: 7.2 mM

L-Ala-L-Glu
Produced peptide [3, 5]: 39.1 mM

L-Ala-L-Trp
Produced peptide [3, 5]: 46.0 mM

L-Ala-L-Phe-Gly
Produced peptide [3, 6]: 34.0 mM | Produced peptide [1, 7]: 43.7 mM

L-Thr-Gly
Produced peptide [3, 8]: 0.4 mM | Formed peptide ([2]; L-amino acid 150 mM): 9.4 mM

L-Ala-L-Thr
Produced peptide [3, 5]: 47.3 mM

L-Arg-L-Met
Produced peptide (mM) [3, 8]: tr | Formed peptide ([2]; L-amino acid 150 mM): 0.7 mM

H—N—Me-Ala-H-Gln-OH
Produced peptide [1, 9]: 0.5 mM

L-Met-L-Met
Produced peptide [3, 8]: 28.4 mM | Formed peptide ([2]; L-amino acid 150 mM): 25.0 mM

L-Val-L-Gln
Produced peptide ([3]; Table 15-2, L-Gln 150 mM): 8.2 mM | Formed peptide ([2]; 150 mM L-glutamine): 15.4 mM

γ-L-Glu-L-Gln
Formed peptide (mM) ([2]; 150 mM L-glutamine): +

L-Met-L-Ser
Produced peptide [3, 8]: 25.3 mM | Formed peptide ([2]; L-amino acid 150 mM): 12.8 mM

L-Asn-L-Glu
Formed peptide ([2]; L-amino acid 150 mM): 10.2 mM

L-Arg-L-Gln
Produced peptide ([3]; Table 15-2, L-Gln 150 mM): 17.2 mM | Formed peptide ([2]; 150 mM L-glutamine): 7.1 mM

L-Ala-L-Val
Produced peptide [3, 5]: 10.9 mM

Thr-β-Phe
Formed peptide [1, 4]: 1.4 mM

L-Trp-L-Met
Formed peptide ([2]; L-amino acid 150 mM): 4.1 mM

L-His-L-Gln
Formed peptide (mM) ([2]; 150 mM L-glutamine): +

L-Ala-L-Phe-L-Ala
Produced peptide [3, 6]: 24.8 mM | Produced peptide [1, 7]: 49.7 mM

D-Ser-L-Ser
Formed peptide [1, 10]: 3.3 mM

Gly-β-Ala
Formed peptide [1, 4]: 2.2 mM

Gly-L-Ser
Produced peptide [3, 8]: 53.8 mM | Formed peptide ([2]; L-amino acid 150 mM): 44.2 mM

L-Leu-L-Met
Formed peptide ([2]; L-amino acid 150 mM): 12.2 mM

H-Ala-p-NO2-Phe-OH
Produced peptide ([1]; carboxy component 40 mM, amine component 40 mM, 0.1 unit enzyme, 25° C., reaction time 3 hr): 27.5 mM

L-Ile-L-Gln
Produced peptide ([3]; Table 15-2, L-Gln 150 mM): 6.4 mM | Formed peptide ([2]; 150 mM L-glutamine): 8.4 mM

CNC(=O)[C@@H](N)[C@@H](C)O [L-Thr-methylamine]
Produced peptide [3, 11]: 0.3 mM | Formed peptide [1, 12]: 0.2 mM

L-Ala-L-Pro
Produced peptide [3, 5]: 1.5 mM

L-Ser-L-Phe
Produced peptide [3, 8]: 4.3 mM | Formed peptide ([2]; L-amino acid 150 mM): 20.3 mM

L-Ala-Gly-L-Ala
Produced peptide [3, 6]: 35.1 mM | Produced peptide [1, 7]: 25.9 mM

L-Pro-L-Gln
Produced peptide ([3]; Table 15-2, L-Gln 150 mM): 1.8 mM | Formed peptide ([2]; 150 mM L-glutamine): 2.2 mM

L-Gln-L-Gln
Produced peptide ([3]; Table 15-2, L-Gln 150 mM): 0.1 mM | Formed peptide ([2]; 150 mM L-glutamine): 0.3 mM

L-Lys-L-Gln
Formed peptide (mM) ([2]; 150 mM L-glutamine): +

L-Ala-Gly
Produced peptide [3, 5]: 11.1 mM

L-Ala-L-Ile
Produced peptide [3, 5]: 24.7 mM

L-Trp-L-Gln
Formed peptide (mM) ([2]; 150 mM L-glutamine): +

L-Thr-Gly-Gly
Produced peptide [3, 6]: 8.4 mM | Produced peptide [1, 7]: 83.0 mM

L-Ser-D-Ser
Formed peptide [1, 10]: 16.2 mM

L-His-L-Met
Formed peptide ([2]; L-amino acid 150 mM): 6.5 mM

L-Ala-Gly-Gly
Produced peptide [3, 6]: 33.7 mM | Produced peptide [1, 7]: 41.7 mM

L-Ala-L-CySH
Produced peptide (mM) [3, 5]: +

Gly-L-Ala-L-Tyr
Produced peptide [3, 6]: 0.6 mM | Produced peptide [1, 7]: 1.7 mM

L-Arg-L-Phe
Produced peptide (mM) [3, 8]: tr | Formed peptide ([2]; L-amino acid 150 mM): 1.9 mM

CNC(=O)C(C)N [L-Ala-methylamine]
Produced peptide [3, 11]: 0.6 mM | Formed peptide [1, 12]: 0.3 mM

COC(=O)[C@H](C)N.Cl [L-Alanine methyl ester•HCl, L-alanine methyl ester hydrochloride]
L-Ala-L-Gln formed [2]: 84.3 mM

H-Aib-Phe-OH
Produced peptide [1, 9]: 17.2 mM

α-L-Glu-L-Gln
Formed peptide (mM) ([2]; 150 mM L-glutamine): +
